Measurements reported in patent publication US12030883B2, “Hetero-tricyclic compounds as inhibitors of KRAS” (Incyte Corporation, priority 2021, dated 2024).

Tests used:
KRAS G12D [1] = biological target: T1, KRAS G12D (Homo sapiens, UniProt P01116, G12D); test: GDP-GTP exchange assay, KRAS G12D (bodipy-GDP/GppNHp, SOS1); assay type: biochemical; settings: bodipy-loaded KRAS G12D 2.5 nM, 4 hours pre-incubation with inhibitor, SOS1 150 nM, GppNHp 500 uM; read-out: G12D_exchange (KRAS_G12D exchange assay IC50)
T1 sequence (P01116 1-188 isoform P01116-2 G12D): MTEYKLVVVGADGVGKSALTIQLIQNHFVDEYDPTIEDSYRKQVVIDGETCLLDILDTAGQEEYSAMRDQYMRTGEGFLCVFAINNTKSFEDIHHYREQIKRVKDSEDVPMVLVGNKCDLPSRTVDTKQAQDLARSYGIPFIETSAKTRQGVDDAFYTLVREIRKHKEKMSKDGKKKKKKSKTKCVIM
Description: (§1) The inhibitor potency of the exemplified compounds was determined in a fluorescence based guanine nucleotide exchange assay, which measures the exchange of bodipy-GDP (fluorescently labeled GDP) for GppNHp (Non-hydrolyzable GTP analog) to generate the active state of KRAS in the presence of SOS1 (guanine nucleotide exchange factor). Inhibitors were serially diluted in DMSO and a volume of 0.1 μL was transferred to the wells of a black low volume 384-well plate. Five μL/well volume of bodipy-loaded KRAS G12D or G12V diluted to a final concentration of 2.5 nM in assay buffer (25 mM Hepes pH 7.5, 50 mM NaCl, 10 mM MgCl2 and 0.01% Brij-35) was added to the plate and pre-incubated with inhibitor for 4 hours (G12D) or 3 hours (G12V) at ambient temperature. A cyclic peptide described to selectively bind G12D mutant (Sakamoto et al., BBRC 484.3 (2017), 605-611) or internal compounds with confirmed binding were used as positive controls in the assay plates. The exchange was initiated by the addition of a 5 μL/well volume containing 1 mM GppNHp and 300 nM SOS1 in assay buffer. The 10 μL/well reaction concentration of the bodipy-loaded KRAS G12D or G12V, GppNHp, and SOS1 were 2.5 nM, 500 uM, and 150 nM, respectively.
(§2) Either GraphPad prism or XLfit was used to analyze the data. The IC50 values were derived by fitting the data to a four parameter logistic equation producing a sigmoidal dose-response curve with a variable Hill coefficient. Prism equation: Y=Bottom+(Top−Bottom)/(1+10^((LogIC50-X)*Hill slope)); XLfit equation: Y=(A+((B−A)/(1+((X/C)^D)))) where X is the logarithm of inhibitor concentration and Y is the response.

KRAS G12V = KRAS G12V (Homo sapiens, UniProt P01116, G12V); test: GDP-GTP exchange assay, KRAS G12V (bodipy-GDP/GppNHp, SOS1); assay type: biochemical; settings: bodipy-loaded KRAS G12V 2.5 nM, 3 hours pre-incubation with inhibitor, SOS1 150 nM, GppNHp 500 uM; read-out: G12V_exchange (KRAS_G12V exchange assay IC50)
KRAS G12V, sequence (P01116 1-188 isoform P01116-2 G12V): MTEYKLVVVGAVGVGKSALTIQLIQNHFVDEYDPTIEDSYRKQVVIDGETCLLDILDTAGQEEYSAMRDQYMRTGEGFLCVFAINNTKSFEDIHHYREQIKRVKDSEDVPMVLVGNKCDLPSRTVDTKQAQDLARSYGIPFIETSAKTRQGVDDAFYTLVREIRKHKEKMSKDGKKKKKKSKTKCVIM
Description: as §1, §2

KRAS G12D [2] = biological target: T1, KRAS G12D; test: KRAS_G12D pERK assay (cellular pERK HTRF assay); assay type: cell-based; design: host or cells: A427 or HPAF-II; settings: KRAS G12D cells (A427, HPAF-II named in method), 2 hours incubation, Phospho-ERK 1/2 HTRF; read-out: G12D_PERK (KRAS_G12D pERK assay IC50)
Description: MIA PaCa-2 (KRAS G12C; ATCC® CRL-1420), A427 (KRAS G12D; ATCC® HTB53), HPAF-II (KRAS G12D; ATCC® CRL-1997) and NCI-H838 (KRAS WT; ATCC® CRL-5844) cells are purchased from ATCC and maintained in RPMI 1640 media supplemented with 10% FBS (Gibco/Life Technologies). The cells are plated at 5000 cells per well (8 uL) into Greiner 384-well low volume, flat-bottom, tissue culture treated white plates and incubated overnight at 37° C., 5% CO2. The next morning, test compound stock solutions are diluted in media at 3× the final concentration, and 4 uL are added to the cells. The plate is mixed by gentle rotation for 30 seconds (250 rpm) at room temperature. The cells are incubated with the KRAS G12C and G12D compounds for 4 hours or 2 hours respectively at 37° C., 5% CO2.
4 uL of 4× lysis buffer with blocking reagent (1:25) (Cisbio) are added to each well and plates are rotated gently (300 rpm) for 30 minutes at room temperature. 4 uL per well of Cisbio anti Phospho-ERK 1/2 d2 is mixed with anti Phospho-ERK 1/2 Cryptate (1:1) are added to each well, mixed by rotation and incubated overnight in the dark at room temperature. Plates are read on the Pherastar plate reader at 665 nm and 620 nm wavelengths. IC50 determination is performed by fitting the curve of inhibitor percent inhibition versus the log of the inhibitor concentration using the GraphPad Prism 7 software.

IC50 (KRAS G12D [1]) | IC50 (KRAS G12V) | IC50 (KRAS G12D [2]) | SMILES
≤ 100 nM | ≤ 100 nM | 100 to 1000 nM | C[C@H](Oc1nc2c(F)c(-c3cccc(Cl)c3Cl)c(CCC#N)cc2c2c1c(=O)c(-c1cnn(C)c1)cn2[C@H]1[C@H]2CN[C@@H]1C2)[C@@H]1CCCN1C (single isomer, unassigned) [Example 24b]
≤ 100 nM | 100 to 1000 nM | 5000 to 10000 nM | Cc1cc2c(nc(O[C@@H](C)[C@@H]3CCCN3C)c3c(=O)c(Nc4cnn(C)c4)cn([C@H]4[C@H]5CN[C@@H]4C5)c32)c(F)c1-c1cccc2c1C(C#N)CCC2 (single isomer, unassigned) [Example 26b]
≤ 100 nM | ≤ 100 nM | ≤ 100 nM | Cc1cc2c(nc(O[C@@H](C)[C@@H]3CCCN3C)c3c(=O)ccn([C@H]4[C@H]5CN[C@@H]4C5)c32)c(F)c1-c1cccc2c1C(C#N)CCC2 (stereo partly drawn) [Example 23, 8-(1-((1R,4R,5S)-2-azabicyclo[2.1.1]hexan-5-yl)-7-fluoro-9-methyl-5-((S)-1-((S)-1-methylpyrrolidin-2-yl)ethoxy)-4-oxo-1,4-dihydrobenzo[h][1,6]naphthyridin-8-yl)-1,2,3,4-tetrahydronaphthalene-1-carbonitrile]
